Laboratory results: patent US20230002324A1, “NAPHTHOQUINONE DERIVATIVES FOR TREATMENT OF OXIDATIVE STRESS DISORDERS” (PTC THERAPEUTICS, INC., priority 2019, published 2023)

Tested on: Q7 cells (ST HDH Q7/7; immortalized mouse striatal cells)
Experiment: Q7 Cystine Deprivation cell survival (rescue) assay
Format: cell-based
Conditions: Q7 cells, cystine-free medium, 18 h, Cell Titer Glo, 50% relative viability vs Vitamin K2 (1 micromolar), read-out: Q7 Cystine Deprivation Survival EC50
Excerpt: In neuronal cells excess extracellular glutamate inhibits the cystine/glutamate antiporter leading to intracellular cysteine depletion, GSH depletion, reactive oxygen species (ROS) production and cell death, a phenomenon termed oxidative glutamate toxicity, oxytosis, or ferroptosis. […] Q7 cells (ST HDH Q7/7; immortalized mouse striatal cells) challenged with cystine-free media or the selective, irreversible GPX4 inhibitor, methyl (1S,3R)-2-(2-chloroacetyl)-1-(4-(methoxycarbonyl)phenyl)-2,3,4,9-tetrahydro-1H-pyrido[3,4-b]indole-3-carboxylate (hereafter referred to as RSL3), recapitulate this phenotype, as do normal human fibroblasts (NHF) challenged with RSL3. An initial screen was performed to identify compounds effective in rescuing Q7 and/or NHF cells from death resulting from cystine deprivation or RSL3 challenge. This method is further described in Yonezawa et al., J. Neurochem 67, 566-573 (1996), Li et al., J Neurosci., 23, 5816-5826 (2003), Yang and Stockwell, Chem Biol., 15: 234-45 (2008), and Yang et al., Cell 156, 317-331 (2014). See also Hinman A, Holst C R, Latham J C, et al. Vitamin E hydroquinone is an endogenous regulator of ferroptosis via redox control of 15-lipoxygenase. PLoS One. 2018; 13(8):e0201369. Published 2018 Aug. 15. doi:10.1371/journal.pone.0201369; and Kahn-Kirby A H, Amagata A, Maeder C I, et al. Targeting ferroptosis: A novel therapeutic strategy for the treatment of mitochondrial disease-related epilepsy. PLoS One. 2019; 14(3):e0214250. Published 2019 Mar. 28. doi:10.1371/journal.pone.0214250.
DMEM (Catalog no. 11995-040), DMEM without Cystine (Catalog no. 21013-024), DMEM without Glucose (Catalog A1443001), PBS (Phosphate buffered saline), Penicillin-streptomycin mix, L-Glutamine, Glucose, Phenol Red, and Pyruvate were purchased from ThermoFisher Scientific (Gibco). Fetal Bovine Serum was obtained from Mediatech, Inc., or Sigma Aldrich. Mouse striatum derived ST HDH Q7/7 (Q7) and normal human skin fibroblast (NHF, product number GM21811) cells were obtained from the Coriell Institute. Methionine and Vitamin K2 were purchased from Sigma Aldrich. RSL3 was synthesized as previously described (see e.g. US Patent Publication US2010/0081654). Cell Titer Glo 2.0 was purchased from Promega. Q7 cell culture medium (Q7 growth medium) was made by combining 50 mL Fetal Bovine Serum, 100 U/mL penicillin, and 100 microgram/mL streptomycin; DMEM was added to make the volume up to 500 mL. Assay medium for the Cystine Deprivation assay was prepared by combining 50 mL Fetal Bovine Serum, 100 U/mL penicillin, 100 microgram/mL streptomycin, 4 mM L-Glutamine, 1 mM Pyruvate and 30 mg/L Methionine; DMEM without Cystine was added to make the volume up to 500 mL. NHF cell culture medium (NHF growth medium) was made by combining 50 mL Fetal Bovine Serum, 100 U/mL penicillin, 100 microgram/mL streptomycin, 2.8 mL 20% Glucose solution (final concentration 6 mM), L-glutamine (final concentration 2 mM), phenol red (final concentration 15 mg/L); DMEM without Glucose was added to make the volume up to 500 mL. Assay medium for the RSL3 challenge assay was identical to Growth medium. While not in use during the course of the experiments, these solutions were stored at 4° C. The cells were grown in 150-cm^2 tissue culture-treated flasks. Every third or fourth day, the cells were sub-cultured by trypsinization and re-seeded at a cell density of 600,000 (Q7) or 300,000 (NHF) cells per flask.
Q7 or NHF cells were cultured routinely as described herein. For 384-well cell survival assays, cells were seeded in clear bottom, black wall 384-well tissue culture-treated polystyrene plates by re-suspending a cell suspension at a density of 50,000 cells/mL in growth medium, then dispensing 60 microliters of cell suspension per well using either an electronic multichannel pipette or a Multidrop™ Combi Reagent Dispenser (ThermoFisher Scientific), corresponding to 3,000 cells/well. […]

| Compound | EC50 |
| --- | --- |
| CC1=C(Cc2ccc(C(F)(F)F)cn2)C(=O)c2cccc(F)c2C1=O [Example 46, 5-fluoro-3-methyl-2-((5-(trifluoromethyl)pyridin-2-yl)methyl)naphthalene-1,4-dione] | < 50 nM |
| COc1cccc2c1C(=O)C(C)=C(Cc1ccc(C(F)(F)F)cn1)C2=O [Example 40, 5-methoxy-3-methyl-2-((5-(trifluoromethyl)pyridin-2-yl)methyl)naphthalene-1,4-dione] | < 50 nM |
| CCCC1=C(Cc2cc(C(F)(F)F)c(F)cn2)C(=O)c2ccccc2C1=O [Example 119, 2-((5-fluoro-4-(trifluoromethyl)pyridin-2-yl)methyl)-3-propylnaphthalene-1,4-dione] | < 50 nM |
| CC1=C(Cc2ccc(C(F)(F)F)nn2)C(=O)c2ccccc2C1=O [Example 10, 2-methyl-3-((6-(trifluoromethyl)pyridazin-3-yl)methyl)naphthalene-1,4-dione] | < 50 nM |
| COC(C1=C(C)C(=O)c2ccccc2C1=O)c1ccc(C(F)(F)F)cn1 (stereo not drawn) [Example 124, 2-(methoxy(5-(trifluoromethyl)pyridin-2-yl)methyl)-3-methylnaphthalene-1,4-dione] | < 50 nM |
| CCCC1=C(Cc2ccc(Cl)cn2)C(=O)c2ccccc2C1=O [Example 106, 2-((5-chloropyridin-2-yl)methyl)-3-propylnaphthalene-1,4-dione] | < 50 nM |
| CC1=C(Cc2cc(C)c(F)cn2)C(=O)c2ccccc2C1=O [Example 3, 2-((5-fluoro-4-methylpyridin-2-yl)methyl)-3-methylnaphthalene-1,4-dione] | < 50 nM |
| CCCC1=C(Cc2ncc(F)cc2F)C(=O)c2ccccc2C1=O [Example 117, 2-((3,5-difluoropyridin-2-yl)methyl)-3-propylnaphthalene-1,4-dione] | < 50 nM |
| CC1=C(Cc2ccc(C)nn2)C(=O)c2ccccc2C1=O [Example 5, 2-methyl-3-((6-methylpyridazin-3-yl)methyl)naphthalene-1,4-dione] | < 50 nM |
| COc1nnc(CC2=C(C)C(=O)c3ccccc3C2=O)cc1C [Example 18, 2-((6-methoxy-5-methylpyridazin-3-yl)methyl)-3-methylnaphthalene-1,4-dione] | > 1000 nM |
| O=C1C(CCC2COC2)=C(Cc2ccc(F)cn2)C(=O)c2ccccc21 [Example 121, 2-((5-fluoropyridin-2-yl)methyl)-3-(2-(oxetan-3-yl)ethyl)naphthalene-1,4-dione] | < 50 nM |
| CC1=C(Cc2cc(C(F)(F)F)c(F)cn2)C(=O)c2ccccc2C1=O [Example 2, 2-((5-fluoro-4-(trifluoromethyl)pyridin-2-yl)methyl)-3-methylnaphthalene-1,4-dione] | < 50 nM |
| CCCC1=C(Cc2ccc(C(F)(F)F)nn2)C(=O)c2ccccc2C1=O [Example 107, 2-propyl-3-((6-(trifluoromethyl)pyridazin-3-yl)methyl)naphthalene-1,4-dione] | < 50 nM |
| O=C1C(O)=C(Cc2ccc(C(F)(F)F)cn2)C(=O)c2ccccc21 [Example 125, 2-hydroxy-3-((5-(trifluoromethyl)pyridin-2-yl)methyl)naphthalene-1,4-dione] | > 1000 nM |
| CC1=C(Cc2cc(C)c(C(F)(F)F)cn2)C(=O)c2ccccc2C1=O [Example 4, 2-methyl-3-((4-methyl-5-(trifluoromethyl)pyridin-2-yl)methyl)naphthalene-1,4-dione] | < 50 nM |
| CCCC1=C(Cc2ncc(F)cc2C)C(=O)c2ccccc2C1=O [Example 111, 2-((5-fluoro-3-methylpyridin-2-yl)methyl)-3-propylnaphthalene-1,4-dione] | 50 to 250 nM |
| CC1=C(Cc2ncc(C(F)(F)F)cn2)C(=O)c2ccccc2C1=O [Example 19, 2-methyl-3-((5-(trifluoromethyl)pyrimidin-2-yl)methyl)naphthalene-1,4-dione] | < 50 nM |
| CCCC1=C(Cc2ccc(F)c(C#N)n2)C(=O)c2ccccc2C1=O [Example 112, 6-((1,4-dioxo-3-propyl-1,4-dihydronaphthalen-2-yl)methyl)-3-fluoropicolinonitrile] | < 50 nM |
